Assay results: US10669276B2, “Fused pyrimidine derivatives” (Hoffmann-La Roche Inc., priority 2016, dated 2020)

Target: γ-secretase (Homo sapiens (Human), UniProt P49768)
Assay: Cellular γ-secretase assay (Aβ42 secretion, AlphaLisa)
Format: cell-based
Details: inhibition of Aβ42 secretion; human neuroglioma H4 cells overexpressing human APP695 Swedish double mutation; 24 hr compound incubation
Description: Human neuroglioma H4 cells overexpressing human APP695 with the Swedish double mutation (K595N/M596L) were plated at 30,000 cells/well/100 μl in 96-well plates in IMDM media containing 10% FCS, 0.2 mg/l Hygromycin B and incubated at 37° C., 5% CO2.
3-4 hr post plating, compounds are a diluted in media and 50 μl is added as […] concentrate to achieve the final concentration. Compound incubation is performed for 24 hr. Final doses typically range from 4 μM down to 0.0013 μM in half-log steps resulting in an eight point dose response curve. Appropriate controls using vehicle only and reference compound were applied to this assay. The final concentration of Me2SO was 0.4%.
After incubation at 37° C., 5% CO2, the supernatant was subjected to quantification of secreted Aβ42 by the means of an AlphaLisa assay kit (Human Amyloid beta 1-42 Kit: Cat # AL203C, Perkin Elmer). 20 μl of the cell culture supernatant was transferred to an assay plate. Then 10 μl of a mixture of the AlphaLisa coupled capture antibody and the biotinylated detection antibody was added and incubated for 3 hours at room temperature while softly shaking the assay plate. After a further addition of 20 μl of the Donor beads the assay plate was incubated for 30 min at room temperature and constant shaking without exposure to direct light. The assay plate was then read on a Paradigm AlphaLisa Reader using the build-in program with excitation at 680 nm and emission at […]. The measured signals were then used to calculate IC50 values for inhibition of Aβ42 secretion by nonlinear regression fit analysis using XLfit 5.3 software (IDBS).

| EC50 [nM] | SMILES |
| --- | --- |
| 8 | CNc1nc(Nc2ccc(-n3cnc(C)n3)c(OC)c2)nc2c1C(C)(C)CN2c1ccc(F)cc1F [Example 19, 7-(2,4-Difluorophenyl)-N2-(3-methoxy-4-(3-methyl-1H-1,2,4-triazol-1-yl)phenyl)-N4,5,5-trimethyl-6,7-dihydro-5H-pyrrolo[2,3-d]pyrimidine-2,4-diamine] |
| 8 | CNc1nc(Nc2cnc(-n3cnc(C)c3)c(OC)c2)nc2c1C(C)(C)CN2c1ccc(F)cc1F [Example 20, 7-(2,4-Difluorophenyl)-N2-(5-methoxy-6-(4-methyl-1H-imidazol-1-yl)pyridin-3-yl)-N4,5,5-trimethyl-6,7-dihydro-5H-pyrrolo[2,3-d]pyrimidine-2,4-diamine] |
| 72 | CNc1nc(Nc2ccc(-n3cnc(C)n3)c(OC)c2)nc2c1C(C)(C)CN2C12CC(C(F)(F)F)(C1)C2 [Example 21, N2-(3-Methoxy-4-(3-methyl-1H-1,2,4-triazol-1-yl)phenyl)-N4,5,5-trimethyl-7-(3-(trifluoromethyl)bicyclo[1.1.1]pentan-1-yl)-6,7-dihydro-5H-pyrrolo[2,3-d]pyrimidine-2,4-diamine] |
| 30 | CNc1nc(Nc2cnc(-n3cnc(C)c3)c(OC)c2)nc2c1C(C)(C)CN2C12CC(C(F)(F)F)(C1)C2 [Example 22, N2-(5-Methoxy-6-(4-methyl-1H-imidazol-1-yl)pyridin-3-yl)-N4,5,5-trimethyl-7-(3-(trifluoromethyl)bicyclo[1.1.1]pentan-1-yl)-6,7-dihydro-5H-pyrrolo[2,3-d]pyrimidine-2,4-diamine] |
| 8 | CNc1nc(Nc2cnc(-n3cnc(Cl)c3)c(OC)c2)nc2c1C(C)(C)CN2c1ccc(F)cc1F [Example 23, N2-(6-(4-Chloro-1H-imidazol-1-yl)-5-methoxypyridin-3-yl)-7-(2,4-difluorophenyl)-N4,5,5-trimethyl-6,7-dihydro-5H-pyrrolo[2,3-d]pyrimidine-2,4-diamine] |
| 22 | CNc1nc(Nc2ccc(-n3cnc(C)n3)c(F)c2)nc2c1C(C)(C)CN2c1ccc(F)cc1F [Example 24, 7-(2,4-Difluorophenyl)-N2-(3-fluoro-4-(3-methyl-1H-1,2,4-triazol-1-yl)phenyl)-N4,5,5-trimethyl-6,7-dihydro-5H-pyrrolo[2,3-d]pyrimidine-2,4-diamine] |
| 8 | CNc1nc(Nc2cnc(-n3cnc(C)c3)c(F)c2)nc2c1C(C)(C)CN2c1ccc(F)cc1 [Example 25, N2-(5-Fluoro-6-(4-methyl-1H-imidazol-1-yl)pyridin-3-yl)-7-(4-fluorophenyl)-N4,5,5-trimethyl-6,7-dihydro-5H-pyrrolo[2,3-d]pyrimidine-2,4-diamine] |
| 6 | CNc1nc(Nc2cnc(-n3cnc(C)c3)c(F)c2)nc2c1C(C)(C)CN2c1ccc(F)cc1F [Example 26, 7-(2,4-Difluorophenyl)-N2-(5-fluoro-6-(4-methyl-1H-imidazol-1-yl)pyridin-3-yl)-N4,5,5-trimethyl-6,7-dihydro-5H-pyrrolo[2,3-d]pyrimidine-2,4-diamine] |
| 30 | CNc1nc(Nc2ccc(-c3nnc(C)o3)c(OC)c2)nc2c1C(C)(C)CN2c1ccc(F)cc1 [Example 27, 7-(4-Fluorophenyl)-N2-(3-methoxy-4-(5-methyl-1,3,4-oxadiazol-2-yl)phenyl)-N4,5,5-trimethyl-6,7-dihydro-5H-pyrrolo[2,3-d]pyrimidine-2,4-diamine] |
| 8 | COc1cc(Nc2nc(NCCO)c3c(n2)N(c2ccc(F)cc2)CC3(C)C)ccc1-n1cnc(C)n1 [Example 28, 2-((7-(4-Fluorophenyl)-2-((3-methoxy-4-(3-methyl-1H-1,2,4-triazol-1-yl)phenyl)amino)-5,5-dimethyl-6,7-dihydro-5H-pyrrolo[2,3-d]pyrimidin-4-yl)amino)ethanol] |
| 6 | COc1cc(Nc2nc(NCCO)c3c(n2)N(c2ccc(F)cc2)CC3(C)C)cnc1-n1cnc(C)c1 [Example 29, 2-((7-(4-Fluorophenyl)-2-((5-methoxy-6-(4-methyl-1H-imidazol-1-yl)pyridin-3-yl)amino)-5,5-dimethyl-6,7-dihydro-5H-pyrrolo[2,3-d]pyrimidin-4-yl)amino)ethanol] |
| 11 | COc1cc(Nc2nc(NCCO)c3c(n2)N(c2ccc(F)cc2)CC3(C)C)cnc1-n1cnc(Cl)c1 [Example 30, 2-((2-((6-(4-Chloro-1H-imidazol-1-yl)-5-methoxypyridin-3-yl)amino)-7-(4-fluorophenyl)-5,5-dimethyl-6,7-dihydro-5H-pyrrolo[2,3-d]pyrimidin-4-yl)amino)ethanol] |
| 15 | Cc1ncn(-c2ccc(Nc3nc(NCCO)c4c(n3)N(c3ccc(F)cc3)CC4(C)C)cc2F)n1 [Example 31, 2-((2-((3-Fluoro-4-(3-methyl-1H-1,2,4-triazol-1-yl)phenyl)amino)-7-(4-fluorophenyl)-5,5-dimethyl-6,7-dihydro-5H-pyrrolo[2,3-d]pyrimidin-4-yl)amino)ethanol] |
| 10 | CNc1nc(Nc2ccc(-n3cnc(C)n3)c(OC)c2)nc2c1CCN2c1ccc(F)cc1 [Example 32, 7-(4-Fluorophenyl)-N2-(3-methoxy-4-(3-methyl-1H-1,2,4-triazol-1-yl)phenyl)-N4-methyl-6,7-dihydro-5H-pyrrolo[2,3-d]pyrimidine-2,4-diamine] |
| 6 | CNc1nc(Nc2cnc(-n3cnc(C)c3)c(OC)c2)nc2c1CCN2c1ccc(F)cc1 [Example 33, 7-(4-Fluorophenyl)-N2-(5-methoxy-6-(4-methyl-1H-imidazol-1-yl)pyridin-3-yl)-N4-methyl-6,7-dihydro-5H-pyrrolo[2,3-d]pyrimidine-2,4-diamine] |
| 8 | CNc1nc(Nc2ccc(-n3cnc(C)c3)c(F)c2)nc2c1C(C)(C)CN2c1ccc(F)cc1 [Example 34, N2-(3-Fluoro-4-(4-methyl-1H-imidazol-1-yl)phenyl)-7-(4-fluorophenyl)-N4,5,5-trimethyl-6,7-dihydro-5H-pyrrolo[2,3-d]pyrimidine-2,4-diamine] |
| 13 | CNc1nc(Nc2ccc(-n3cnc(C)n3)c(OC)c2)nc2c1C(C)(C)CCN2c1ccc(F)cc1 [Example 35, 8-(4-Fluorophenyl)-N2-(3-methoxy-4-(3-methyl-1H-1,2,4-triazol-1-yl)phenyl)-N4,5,5-trimethyl-5,6,7,8-tetrahydropyrido[2,3-d]pyrimidine-2,4-diamine] |
| 14 | CNc1nc(Nc2cnc(-n3cnc(C)c3)c(F)c2)nc2c1C(C)(C)CCN2c1ccc(F)cc1 [Example 36, N2-(5-Fluoro-6-(4-methyl-1H-imidazol-1-yl)pyridin-3-yl)-8-(4-fluorophenyl)-N4,5,5-trimethyl-5,6,7,8-tetrahydropyrido[2,3-d]pyrimidine-2,4-diamine] |
| 8 | CNc1nc(Nc2ccc(-n3cnc(C)c3)c(F)c2)nc2c1C(C)(C)CCN2c1ccc(F)cc1 [Example 37, N2-(3-Fluoro-4-(4-methyl-1H-imidazol-1-yl)phenyl)-8-(4-fluorophenyl)-N4,5,5-trimethyl-5,6,7,8-tetrahydropyrido[2,3-d]pyrimidine-2,4-diamine] |
| 6 | CNc1nc(Nc2ccc(-n3cnc(C)c3)c(F)c2)nc2c1CCN2c1ccc(F)cc1 [Example 38, N2-(3-Fluoro-4-(4-methyl-1H-imidazol-1-yl)phenyl)-7-(4-fluorophenyl)-N4-methyl-6,7-dihydro-5H-pyrrolo[2,3-d]pyrimidine-2,4-diamine] |
| 6 | CNc1nc(Nc2ccc(-n3cnc(C)n3)c(OC)c2)nc2c1C(C)CN2c1ccc(F)cc1 (stereo not shown) [Example 39, 7-(4-Fluorophenyl)-N2-(3-methoxy-4-(3-methyl-1H-1,2,4-triazol-1-yl)phenyl)-N4,5-dimethyl-6,7-dihydro-5H-pyrrolo[2,3-d]pyrimidine-2,4-diamine] |
| 6 | CNc1nc(Nc2cnc(-n3cnc(C)c3)c(OC)c2)nc2c1C(C)CN2c1ccc(F)cc1 (stereo not shown) [Example 40, 7-(4-Fluorophenyl)-N2-(5-methoxy-6-(4-methyl-1H-imidazol-1-yl)pyridin-3-yl)-N4,5-dimethyl-6,7-dihydro-5H-pyrrolo[2,3-d]pyrimidine-2,4-diamine] |
| 9 | CNc1nc(Nc2ccc(-n3cnc(C)n3)c(OC)c2)nc2c1C(C)(C)CN2c1cccc(F)c1F [Example 41, 7-(2,3-Difluorophenyl)-N2-(3-methoxy-4-(3-methyl-1H-1,2,4-triazol-1-yl)phenyl)-N4,5,5-trimethyl-6,7-dihydro-5H-pyrrolo[2,3-d]pyrimidine-2,4-diamine] |
| 8 | CNc1nc(Nc2cnc(-n3cnc(C)c3)c(F)c2)nc2c1C(C)(C)CN2c1cccc(F)c1F [Example 42, 7-(2,3-Difluorophenyl)-N2-(5-fluoro-6-(4-methyl-1H-imidazol-1-yl)pyridin-3-yl)-N4,5,5-trimethyl-6,7-dihydro-5H-pyrrolo[2,3-d]pyrimidine-2,4-diamine] |
| 5 | CNc1nc(Nc2ccc(-n3cnc(C)c3)c(F)c2)nc2c1C(C)(C)CN2c1cccc(F)c1F [Example 43, 7-(2,3-Difluorophenyl)-N2-(3-fluoro-4-(4-methyl-1H-imidazol-1-yl)phenyl)-N4,5,5-trimethyl-6,7-dihydro-5H-pyrrolo[2,3-d]pyrimidine-2,4-diamine] |
